Read-outs that look alike come from different tables or passages of the source.
Tested on: IL1b release THP-1
Assay: IL1b release THP-1 (ELISA)
Format: cell-based
Details: Homo sapiens
Description: Example A. Primary Assays Used to Determine IL1b Release THP-1 (ELISA)
• Microbiological safety cabinet, classII (NuAire, USA) • CO2 incubator (VWR Science, USA) • Countess Automated Cell Counter (Invitrogen, USA, cat. number C10227) • Centrifuge CM 6M (Elmi, Latvia) • Serological pipettes 2, 5, 10, 25, 50, 100 ml sterile (Santa Cruz Biotechnology, Inc., USA, sc-200277, sc-200279, sc-200281, sc-200283, Sc-213234, sc-516777) • Single and multichannel pipettes 0.2-10 μL, 50-1200 μL (Eppendorf AG-Hamburg, Germany) • 50 mL PP sterile tubes (Greiner, cat. Number 210261).
• RPMI-1640 (PanEco, C330) • Sodium pyruvate (Paneco, cat. number Φ023) • Non-Essential amino acids 50× (Paneco, Φ116) • Essential amino acids 50× (Paneco, Φ115/50) • FBS (Hyclone Laboratories Inc, USA, SV30160.03) • Antibiotic-antimycotic (Gibco, USA, 15240-062) • 2-mercaptoethanol 1000×55 mM (Gibco, USA, 21985-023) • LPS-EB ultrapure (invivogen, cat. number tlrl-3pelps) • Nigericin (Sigma, cat. number N7143) • ELISA kit, IL-1beta (Cat #A-8766, Interleukin-1 beta-EIA-BEST, Vector Best). LPS Preparation (5 mg/ml): • 1. Add 1 ml of endotoxin-free water according manufacturer's protocol • 2. Vortex until complete solubilization • 3. Aliquote and store at […] for long term storage.
• 1. Add methanol to 10 mg of powder to produce the 10 mM Nigericin solution • 2. Vortex until complete solubilization • 3. Store at 4° C.
THP-1 cells were propagated in RPMI-1640 (10% FBS, Antibiotic-antimycotic 1×, non-Essential amino acids 1×, Essential amino acids 1×, Sodium pyruvate 2×, 2-mercaptoethanol 0.05 mM) at 37° C. and at 5% CO2 in an incubator.
• 1. THP-1 cells were spined at 100 g for 5 min in 50 ml tube. • 2. THP-1 cells were resuspended in warm culture medium (w/o FBS, w/o Antibiotic-antimycotic, non-Essential amino acids 1×, Essential amino acids 1×, Sodium pyruvate 2×) to the concentration 1,3×10^6 cells. • 3. THP-1 cells were primed in tube with 1 μg/ml of LPS for 4 h at 37° C. and at 5% CO2 in an incubator. • 4. THP-1 cells were stimulated with 10 μM of Nigericin (Cat #N7143-10 MG, Sigma Aldrich) for 2 h at 37° C. and at 5% CO2 in an incubator. • 5. After the full activation, the supernatant was collected and the levels of IL-1β were assessed via ELISA according manufacturer instructions (Cat #A-8766, Vector Best).
The average EC50 values are shown in Table A, wherein “A” corresponds to EC50: A≤0.5 μM, “B” corresponds to 0.5 μM<EC50≤1.0 μM, “C” 1.0 μM<EC50≤5.0 μM, “D” corresponds to 5.0 μM<EC50≤30 μM and “E” corresponds to EC50>30 μM.

[1] = average EC50, THP-1 cells primed with 1 μg/ml LPS 4 h, stimulated with 10 μM Nigericin 2 h, IL-1β in supernatant by ELISA, read-out: THP 1 IL 1b, EC50
[2] = THP-1, read-out: THP 1 IL 1b, EC50, μM

SMILES	EC50 [1]	EC50 [2]
CCN1CCC[C@@H](Nc2nnc(-c3ccc(C(F)(F)F)cc3NS(C)(=O)=O)cc2C(F)(F)F)C1 [Compound 45, N-[2-[6-[[(3R)-1-ethyl-3-piperidyl]amino]-5-(trifluoromethyl)pyridazin-3-yl]-5-(trifluoromethyl)phenyl]methanesulfon-amide]	0.5 to 1 µM	
Cc1cc(N[C@@H]2CCCN(C)C2)nnc1-c1ccc(C(F)(F)F)cc1NS(C)(=O)=O [Compound 4, (R)—N-(2-(4-Methyl-6-((1-methylpiperidin-3-yl)amino)pyridazin-3-yl)-5-(trifluoromethyl)phenyl) methanesulfonamide]	0.5 to 1 µM	
CCC(C)N1CCC[C@@H](Nc2cc(C)c(-c3ccc(C(F)(F)F)cc3NS(C)(=O)=O)nn2)C1 (stereo partly drawn) [Compound 35, N-(2-(6-(((3R)-1-(sec-Butyl)piperidin-3-yl)amino)-4-methylpyridazin-3-yl)-5-(trifluoromethyl)phenyl) methanesulfonamide]		< 0.5 µM
Cc1cc(N[C@@H]2CCCN(C(C)C)C2)nnc1-c1ccc(C(F)(F)F)cc1NC(F)(F)F [Compound 122, N-[(3R)-1-isopropyl-3-piperidyl]-5-methyl-6-[4-(trifluoromethyl)-2-(trifluoromethylamino)phenyl]-pyridazin-3-amine]	0.5 to 1 µM	
CCN1CCC[C@@H](Nc2cc(C)c(-c3ccc(C(F)(F)F)cc3NS(=O)(=O)CC)nn2)C1 [Compound 63, N-[2-[6-[[(3R)-1-ethyl-3-piperidyl]amino]-4-methyl-pyridazin-3-yl]-5-(trifluoromethyl)phenyl]ethanesulfon-amide]	< 0.5 µM	
Cc1cc(N[C@@H]2CCCN(C(C)C)C2)nnc1-c1ccc(C(F)(F)F)cc1NC(C)C [Compound 111, 6-[2-(isopropylamino)-4-(trifluoromethyl)phenyl]-N-[(3R)-1-isopropyl-3-piperidyl]-5-methyl-pyridazin-3-amine]	< 0.5 µM	
COC(C)(C)CCN1CCC[C@@H](Nc2cc(C)c(-c3ccc(C(F)(F)F)cc3NS(C)(=O)=O)nn2)C1 [Compound 53, N-[2-[6-[[(3R)-1-(3-methoxy-3-methyl-butyl)-3-piperidyl]amino]-4-methyl-pyridazin-3-yl]-5-(trifluoromethyl)phenyl]methanesulfon-amide]	1 to 5 µM	
Cc1cc(N[C@@H]2CCCN(C3CCOCC3)C2)nnc1-c1ccc(C(F)(F)F)cc1NS(C)(=O)=O [Compound 39]	< 0.5 µM	
Cc1cc(N[C@@H]2CCCN(C(C)C)C2)nnc1-c1ccc(C(F)(F)F)cc1N [Compound 110, (R)-6-(2-Amino-4-(trifluoromethyl)phenyl)-N-(1-isopropylpiperidin-3-yl)-5-methyl pyridazin-3-amine]	< 0.5 µM	
Cc1cc(-c2ccc(C(F)(F)F)cc2NS(C)(=O)=O)nnc1N[C@@H]1CCCN(C)C1 [Compound 7, (R)—N-(2-(5-Methyl-6-((1-methylpiperidin-3-yl)amino)pyridazin-3-yl)-5-(trifluoromethyl)phenyl) methanesulfonamide]	< 0.5 µM	
CCN1CCC[C@@H](Nc2nnc(-c3ccc(C(F)(F)F)cc3NS(=O)(=O)c3c[nH]cn3)cc2C)C1 [Compound 68, (R)—N-(2-(6-((1-Ethylpiperidin-3-yl)amino)-5-methylpyridazin-3-yl)-5-(trifluoromethyl)phenyl)-1H-imidazole-5-sulfonamide]	5 to 30 µM	
Cc1cc(-c2ccc(C(F)(F)F)cc2N)nnc1N[C@@H]1CCCN(C(C)C)C1 [Compound 118, 6-[2-amino-4-(trifluoromethyl)phenyl]-N-[(3R)-1-isopropyl-3-piperidyl]-4-methyl-pyridazin-3-amine]	< 0.5 µM	
Cc1cc(N[C@@H]2CCCN(CC(C)(C)O)C2)nnc1-c1ccc(C(F)(F)F)cc1NS(C)(=O)=O [Compound 47]	0.5 to 1 µM	
CCN1CCC[C@@H](Nc2cc(C)c(-c3ccc(C(F)(F)F)cc3N)nn2)C1 [Compound 130, (R)-6-(2-Amino-4-(trifluoromethyl)phenyl)-N-(1-ethylpiperidin-3-yl)-5-methylpyridazin-3-amine]	< 0.5 µM	
Cc1cc(-c2ccc(C(F)(F)F)cc2NS(C)(=O)=O)nnc1N[C@@H]1CCCN(CCO)C1 [Compound 9, (R)—N-(2-(6-((1-(2-Hydroxyethyl)piperidin-3-yl)amino)-5-methylpyridazin-3-yl)-5-(trifluoromethyl)phenyl) methanesulfonamide]	0.5 to 1 µM	
Cc1cc(-c2ccc(C(F)(F)F)c3nn[nH]c23)nnc1N[C@@H]1CCCN(C)C1 [Compound 21, 4-methyl-N-[(3R)-1-methyl-3-piperidyl]-6-[7-(trifluoromethyl)-3H-benzotriazol-4-yl]pyridazin-3-amine]	5 to 30 µM	
Cc1cc(N[C@@H]2CCCN(Cc3ccccc3)C2)nnc1-c1ccc(C(F)(F)F)cc1NS(C)(=O)=O [Compound 44, N-[2-[6-[[(3R)-1-benzyl-3-piperidyl]amino]-4-methyl-pyridazin-3-yl]-5-(trifluoromethyl)phenyl]methanesulfon-amide]	0.5 to 1 µM	
Cc1cc(-c2ccc(C(F)(F)F)cc2NS(C)(=O)=O)nnc1N[C@@H]1CCCN(C2CCC2)C1 [Compound 31, (R)—N-(2-(6-((1-Cyclobutylpiperidin-3-yl)amino)-5-methylpyridazin-3-yl)-5-(trifluoromethyl)phenyl) methanesulfonamide]		< 0.5 µM
Cc1cc(-c2ccc(C(F)(F)F)cc2NC(=O)C(C)C)nnc1N[C@@H]1CCCN(C(C)C)C1 [Compound 29, N-[2-[6-[[(3R)-1-isopropyl-3-piperidyl]amino]-5-methyl-pyridazin-3-yl]-5-(trifluoromethyl)phenyl]-2-methyl-propanamide]	1 to 5 µM	
Cc1cc(-c2ccc(C(F)(F)F)c3cn[nH]c23)nnc1N[C@@H]1CCCN(CCO)C1 [Compound 19, 2-[(3R)-3-[[4-methyl-6-[4-(trifluoromethyl)-1H-indazol-7-yl]pyridazin-3-yl]amino]-1-piperidyl]ethanol]	> 30 µM	
CCN1C[C@H](F)C[C@@H](Nc2nnc(-c3ccc(C(F)(F)F)cc3NS(C)(=O)=O)cc2C)C1 [Compound 66, N-(2-(6-(((3R,5R)-1-ethyl-5-fluoropiperidin-3-yl)amino)-5-methylpyridazin-3-yl)-5-(trifluoromethyl)phenyl) methanesulfonamide]	0.5 to 1 µM	
Cc1cc(-c2ccc(C(F)(F)F)cc2NC(=O)C(F)F)nnc1N[C@@H]1CCCN(C(C)C)C1 [Compound 120]	< 0.5 µM	
CN1CCC[C@@H](Nc2nnc(-c3ccc(C(F)(F)F)cc3NS(C)(=O)=O)cc2C(F)(F)F)C1 [Compound 52, N-[2-[6-[[(3R)-1-methyl-3-piperidyl]amino]-5-(trifluoromethyl)pyridazin-3-yl]-5-(trifluoromethyl)phenyl]methanesulfon-amide]	1 to 5 µM	
Cc1cc(N[C@@H]2CCCN(C(C)C)C2)nnc1-c1ccc(C(F)(F)F)cc1NC(=O)C(F)(F)F [Compound 117, (R)-2,2,2-Trifluoro-N-(2-(6-((1-isopropylpiperidin-3-yl)amino)-4-methylpyridazin-3-yl)-5-(trifluoromethyl)phenyl) acetamide]	< 0.5 µM	
CCN1CCC[C@@H](Nc2cc(C)c(-c3ccc(C(F)(F)F)cc3NS(=O)(=O)c3c[nH]cn3)nn2)C1 [Compound 69, N-[2-[6-[[(3R)-1-ethyl-3-piperidyl]amino]-4-methyl-pyridazin-3-yl]-5-(trifluoromethyl)phenyl]-1H-imidazole-4-sulfonamide]	1 to 5 µM	
Cc1cc(-c2ccc(C(F)(F)F)cc2NC(C)C)nnc1N[C@@H]1CCCN(C(C)C)C1 [Compound 115, 6-[2-(isopropylamino)-4-(trifluoromethyl)phenyl]-N-[(3R)-1-isopropyl-3-piperidyl]-4-methyl-pyridazin-3-amine]	< 0.5 µM	
Cc1cc(N[C@@H]2CCCN(C(C)C)C2)nnc1-c1ccc(C(F)(F)F)cc1NS(C)(=O)=O [Compound 27]	< 0.5 µM	
